Assays:
[1] = system: Detroit562 (Head and Neck Carcinoma); experiment: Bliss excess, mean over the matrix (fraction); higher = more synergy
Outline: (§1)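 After 24 hours at 37°C and 5% CO2 in 1536-well plates, cells in DMEM/F12 or RPMI plus 10% FBS received two-drug dose matrices for 72 hours. Viability came from CellTiter-Glo 2.0 luminescence and was scaled as inhibition, anchored at 0 by vehicle wells and at 1 by blank wells. Combination Emax is taken as the second-highest inhibition in the matrix, and Bliss excess as the observed combination effect less EA + EB − EA·EB, with EA and EB the single-agent effects.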

[2] = system: EW-11 (Ewing's Sarcoma); experiment: as above
Outline: as §1

[3] = system: NUGC-4 (Gastric Carcinoma); experiment: as above
Outline: as §1

[4] = system: WSU-NHL (B-Cell Non-Hodgkin's Lymphoma); experiment: as above
Outline: as §1

[5] = system: A673 (Ewing's Sarcoma); experiment: combination Emax (second highest fraction inhibited in the dose matrix, 72 h); higher = more inhibition; extreme values may be limits of the assay
Outline: as §1

[6] = system: ALL-PO (B-Lymphoblastic Leukemia); experiment: as above
Outline: as §1

[7] = system: BE2-M17 (Neuroblastoma); experiment: as above
Outline: as §1

[8] = system: BPH-1 (Non-Cancerous); experiment: as above
Outline: as §1

[9] = system: EW-11 (Ewing's Sarcoma); experiment: as above
Outline: as §1

[10] = system: FTC-133 (Thyroid Gland Carcinoma); experiment: as above
Outline: as §1

[11] = system: HH (T-Cell Non-Hodgkin's Lymphoma); experiment: as above
Outline: as §1

[12] = system: HuCCT1 (Biliary Tract Carcinoma); experiment: as above
Outline: as §1

[13] = system: KMRC-20 (Kidney Carcinoma); experiment: as above
Outline: as §1

[14] = system: LCLC-97TM1 (Non-Small Cell Lung Carcinoma); experiment: as above
Outline: as §1

[15] = system: NCI-H1568 (Lung Adenocarcinoma); experiment: as above
Outline: as §1

[16] = system: OE21 (Esophageal Squamous Cell Carcinoma); experiment: as above
Outline: as §1

[17] = system: OV-56 (Ovarian Carcinoma); experiment: as above
Outline: as §1

[18] = system: SNU-16 (Gastric Carcinoma); experiment: as above
Outline: as §1

[19] = system: SNU-449 (Hepatocellular Carcinoma); experiment: as above
Outline: as §1

[20] = system: YAPC (Pancreatic Carcinoma); experiment: as above
Outline: as §1
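For Bliss excess, mean over the matrix in this document: after 72 h of two-drug dosing.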

| Structure (SMILES) | Bliss excess [1] | Bliss excess [2] | Bliss excess [3] | Bliss excess [4] | combination Emax [5] | combination Emax [6] | combination Emax [7] | combination Emax [8] | combination Emax [9] | combination Emax [10] | combination Emax [11] | combination Emax [12] | combination Emax [13] | combination Emax [14] | combination Emax [15] | combination Emax [16] | combination Emax [17] | combination Emax [18] | combination Emax [19] | combination Emax [20] |
| --- | --- | --- | --- | --- | --- | --- | --- | --- | --- | --- | --- | --- | --- | --- | --- | --- | --- | --- | --- | --- |
| Cc1cc2ncnn2cc1Nc1ncc2c(n1)n(C1CCOCC1)c(=O)n2C [AZD7648] + CN(C)CCCOc1ccc(-c2ccc3ncc4c(c3c2)n(C2CCOCC2)c(=O)n4C)cn1 [AZD0156] (first compound max 10 µM, 7x7, partner max 1 µM) | 0.0129 | -0.0549 | 0.0034 | -0.0531 | 0.336 | 0.265 | 0.283 | 0.378 | 0.549 | 0.241 | 0.285 | 0.389 | 0.201 | 0.159 | 0.24 | 0.554 | 0.224 | 0.239 | 0.282 | 0.209 |
| Cc1cc2ncnn2cc1Nc1ncc2c(n1)n(C1CCOCC1)c(=O)n2C [AZD7648] + C[C@@H]1COCCN1C2=NC(=NC(=C2)C3(CC3)[S@](=N)(=O)C)C4=C5C=CNC5=NC=C4 [AZD6738] (first compound max 10 µM, 7x7, partner max 10 µM) | 0.0217 | 0.0104 | -0.0673 | -0.0181 | 0.809 | 0.925 | 0.844 | 0.429 | 0.748 | 0.677 | 0.337 | 0.735 | 0.425 | 0.84 | 0.499 | 0.74 | 0.734 | 0.984 | 0.279 | 0.335 |
| Cc1cc2ncnn2cc1Nc1ncc2c(n1)n(C1CCOCC1)c(=O)n2C [AZD7648] + O=C(c1cc(Cc2n[nH]c(=O)c3ccccc23)ccc1F)N1CCN(C(=O)C2CC2)CC1 [Olaparib] (first compound max 10 µM, 7x7, partner max 10 µM) | -0.0108 | -0.0826 | -0.049 | -0.057 | 0.585 | 0.608 | 0.414 | 0.515 | 0.582 | 0.259 | 0.22 | 0.185 | 0.282 | 0.199 | 0.212 | 0.354 | 0.103 | 0.463 | 0.0839 | 0.0464 |
| Cc1nc(Nc2ncc(C(=O)Nc3c(C)cccc3Cl)s2)cc(N2CCN(CCO)CC2)n1 [Dasatinib] + CC(=O)Nc1cccc(-n2c(=O)n(C3CC3)c(=O)c3c(Nc4ccc(I)cc4F)n(C)c(=O)c(C)c32)c1 [Trametinib] (first compound max 2 µM, 7x7, partner max 1 µM) | -0.0007 | -0.0404 | 0.007 | 0.0024 | 0.237 | 0.451 | 0.868 | 0.744 | 0.157 | 0.261 | 0.216 | 0.772 | 0.57 | 0.904 | 0.668 | 0.723 | 0.446 | 0.532 | 0.691 | 0.7 |
| COc1cc2ncnc(Nc3ccc(F)c(Cl)c3)c2cc1OCCCN1CCOCC1 [Gefitinib] + CC(C)n1c(=O)n(C)c2cnc3cc(F)c(-c4ccc(OCCCN5CCCCC5)nc4)cc3c21 [AZD1390] (first compound max 10 µM, 7x7, partner max 0.3 µM) | -0.0476 | -0.0563 | -0.0491 | -0.0499 | 0.162 | 0.59 | 0.147 | 0.556 | 0.171 | 0.0388 | 0.221 | 0.389 | 0.173 | 0.0902 | 0.318 | 0.499 | 0.0799 | 0.36 | 0.249 | 0.197 |
| COc1cc2c(cc1OCCCCCOc1cc3c(cc1OC)C(=O)N1C=C(C)C[C@H]1C=N3)N=C[C@@H]1CC(C)=CN1C2=O [SG3199] + O=C(c1cc(Cc2n[nH]c(=O)c3ccccc23)ccc1F)N1CCN(C(=O)C2CC2)CC1 [Olaparib] (first compound max 0.001 µM, 7x7, partner max 10 µM) | -0.0252 | -0.051 | -0.0134 | -0.0156 | 0.563 | 0.646 | 0.299 | 0.354 | 0.582 | 0.134 | 0 | 0.0094 | 0.128 | 0.12 | 0.191 | 0.133 | 0.131 | 0.363 | 0.0573 | 0.0017 |
| C[C@@H](c1ccc2nccn2c1)n1nnc2ncc(-c3cnn(C)c3)nc21 [Savolitinib] + CC1(C)CCC(CN2CCN(c3ccc(C(=O)NS(=O)(=O)c4ccc(NCC5CCOCC5)c([N+](=O)[O-])c4)c(Oc4cnc5[nH]ccc5c4)c3)CC2)=C(c2ccc(Cl)cc2)C1 [Venetoclax] (first compound max 1 µM, 7x7, partner max 1 µM) | -0.0322 | -0.0096 | -0.0817 | -0.0193 | 0.309 | 0.337 | 0.0964 | 0.136 | 0.213 | 0.17 | 0.134 | 0.107 | 0.148 | 0.0631 | 0.0767 | 0.0581 | 0.158 | 0.129 | 0.157 | 0.113 |
| C[C@@H](c1ccc2nccn2c1)n1nnc2ncc(-c3cnn(C)c3)nc21 [Savolitinib] + Cc1c2c(nn1C)CSCc1cc(n(C)n1)CSc1cc(c3ccccc3c1)OCCCc1c(C(=O)O)n(C)c3c-2c(Cl)ccc13 [AZD5991] (first compound max 1 µM, 7x7, partner max 1 µM) | 0.0497 | 0.0361 | -0.0348 | -0.0467 | 0.302 | 1 | 0.129 | 0.199 | 0.491 | 0.176 | 0.879 | 0.117 | 0.195 | 0.147 | 0.147 | 0.355 | 0.151 | 0.947 | 0.154 | 0.11 |

— the supplement of paper PMC11061612
